Data taken from PMC9186491, “Novel Small Molecule Tyrosine Kinase 2 Pseudokinase Ligands Block Cytokine-Induced TYK2-Mediated Signaling Pathways” (Frontiers in Immunology, 2022).

Key:
LM T1/2, R = assay type: in vitro ADME; conditions: rat, liver microsomes
[1] = molecular target: T1, JAK2 JH2 pseudokinase domain (Homo sapiens, UniProt O60674); test: KdELECT competition binding assay, JAK2 JH2; conditions: read-out: JAK Binding Selectivity (Kd) Pseudokinase Domain (JH2) JAK2
T1 construct: purchased Eurofins DiscoverX Corporation (contract assay)
Method: (§1) The KdELECT competition assays were performed to test the binding affinity of compounds to the JH1 kinase region or JH2 pseudokinase region in TYK2 or JAK by ligand competition with JH1 or JH2 protein segments. The assay was carried out at Eurofins DiscoverX Corporation following the established standard protocol (DiscoverX, San Diego, CA). In this assay, compounds that bind to the kinase or pseudokinase protein regions prevent the protein binding to the immobilized ligand and reduce the amount of kinase matter captured on the solid surface. […] Dissociation constants (Kds) for test compound-kinase interactions are calculated by measuring the amount of kinase captured on the solid support as a function of the test compound concentration. […] The ligated beads were blocked with excess biotin and washed with blocking buffer to remove unbound ligand and to reduce nonspecific binding. […] All reactions were performed in polypropylene 384-well plates with a final volume of 20 μL. […] The beads were then re-suspended in the elution buffer and incubated at room temperature with shaking for 30 minutes. The kinase concentration in the eluant was measured by qPCR. Two replicates were performed and averaged to obtain the Kd measurement.

LM T1/2, M = assay type: in vitro ADME; conditions: mouse, liver microsomes
[2] = molecular target: T2, JAK1 JH2 pseudokinase domain (Homo sapiens, UniProt P23458); test: KdELECT competition binding assay, JAK1 JH2; conditions: read-out: JAK Binding Selectivity (Kd) Pseudokinase Domain (JH2) JAK1
T2 construct: purchased Eurofins DiscoverX Corporation (contract assay)
Method: as §1

JAK3 = molecular target: T3, JAK3 (Homo sapiens, UniProt P52333); test: Z'LYTE JAK kinase inhibition assay, JAK3; assay type: biochemical; conditions: read-out: JAK Catalytic Selectivity (IC50) JAK3
T3 sequence (P52333 1-1124): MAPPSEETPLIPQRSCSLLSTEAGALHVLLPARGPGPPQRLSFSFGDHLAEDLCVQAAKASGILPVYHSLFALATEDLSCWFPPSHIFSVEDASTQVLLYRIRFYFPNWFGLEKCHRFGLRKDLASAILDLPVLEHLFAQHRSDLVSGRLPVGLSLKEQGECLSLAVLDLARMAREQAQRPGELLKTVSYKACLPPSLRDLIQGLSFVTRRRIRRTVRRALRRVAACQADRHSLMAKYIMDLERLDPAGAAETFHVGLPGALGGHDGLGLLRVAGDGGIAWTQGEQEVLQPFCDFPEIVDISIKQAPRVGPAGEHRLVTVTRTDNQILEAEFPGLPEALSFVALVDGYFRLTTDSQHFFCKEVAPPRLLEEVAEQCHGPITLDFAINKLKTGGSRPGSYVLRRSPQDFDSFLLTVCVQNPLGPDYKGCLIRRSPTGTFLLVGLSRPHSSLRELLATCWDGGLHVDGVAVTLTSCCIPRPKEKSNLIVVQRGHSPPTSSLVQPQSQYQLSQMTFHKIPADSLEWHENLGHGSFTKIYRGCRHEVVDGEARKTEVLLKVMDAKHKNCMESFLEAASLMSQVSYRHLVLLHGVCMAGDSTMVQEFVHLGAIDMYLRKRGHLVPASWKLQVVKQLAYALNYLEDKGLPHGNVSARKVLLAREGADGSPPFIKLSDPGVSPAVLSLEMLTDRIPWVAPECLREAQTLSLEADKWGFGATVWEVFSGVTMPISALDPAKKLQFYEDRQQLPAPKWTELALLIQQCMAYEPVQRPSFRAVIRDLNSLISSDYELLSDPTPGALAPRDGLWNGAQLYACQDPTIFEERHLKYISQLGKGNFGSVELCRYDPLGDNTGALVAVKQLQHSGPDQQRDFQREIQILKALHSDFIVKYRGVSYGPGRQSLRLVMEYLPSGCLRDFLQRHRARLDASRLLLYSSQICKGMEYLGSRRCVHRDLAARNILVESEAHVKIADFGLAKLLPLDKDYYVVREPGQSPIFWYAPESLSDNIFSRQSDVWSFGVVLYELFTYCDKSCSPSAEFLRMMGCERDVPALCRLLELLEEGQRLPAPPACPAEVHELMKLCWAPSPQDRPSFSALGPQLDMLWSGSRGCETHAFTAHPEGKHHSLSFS

CYP450 2C19 = CYP450 2C19 (Homo sapiens, UniProt P33261); test: CYP450 inhibition, 2C19; assay type: in vitro ADME
GSH = assay type: in vitro ADME
PPB, Mk = assay type: in vitro ADME; conditions: monkey, plasma
JAK3 JH1 kinase domain = molecular target: T4, JAK3 JH1 kinase domain (Homo sapiens, UniProt P52333); test: KdELECT competition binding assay, JAK3 JH1; conditions: read-out: JAK Binding Selectivity (Kd) Catalytical Domain (JH1) JAK3
T4 construct: purchased Eurofins DiscoverX Corporation (contract assay)
Method: as §1

JAK1 JH1 kinase domain = molecular target: T5, JAK1 JH1 kinase domain (Homo sapiens, UniProt P23458); test: KdELECT competition binding assay, JAK1 JH1; conditions: read-out: JAK Binding Selectivity (Kd) Catalytical Domain (JH1) JAK1
T5 construct: purchased Eurofins DiscoverX Corporation (contract assay)
Method: as §1

PPB, R = assay type: in vitro ADME; conditions: rat, plasma
LM T1/2, H = assay type: in vitro ADME; conditions: human, liver microsomes
JAK2 JH1 kinase domain = molecular target: T6, JAK2 JH1 kinase domain (Homo sapiens, UniProt O60674); test: KdELECT competition binding assay, JAK2 JH1; conditions: read-out: JAK Binding Selectivity (Kd) Catalytical Domain (JH1) JAK2
T6 construct: purchased Eurofins DiscoverX Corporation (contract assay)
Method: as §1

[3] = test system: IFNα-induced TYK2/phosphoSTAT1 (Tyr701) in Kit225 T cells; test: Kit225 T cell assay for IFNα-induced TYK2/phosphoSTAT1 activity; assay type: cell-based, human; conditions: Homo sapiens; Kit225 cells, 80 ng/mL IFNα, AlphaLISA; read-out: IC50 IFNα-induced-STAT1 Phosphorylation
Method: The cells were treated with serially diluted compounds for 1 hour and stimulated with 80 ng/mL human recombinant IFNα (R&D Systems) for 15 minutes. The treated cells were then lysed and cellular phosphorylated-STAT1 (Tyr701) levels were measured by AlphaLISA (PerkinElmer, Cat#ALSU-PST1) according to the manufacturer’s instructions.

[4] = test system: JAK1/3-dependent IL2-induced phosphorylation of STAT5 (Tyr694/699) in Kit225 cells; test: JAK cellular selectivity assay, IL2-pSTAT5 (JAK1/3); assay type: cell-based; conditions: Homo sapiens; Kit225 cells; read-out: JAK Cellular Selectivity (IC50) IL2-pSTAT5 (JAK1/3)
Method: The cells were then ready for the assay after incubating for 2 hours in a humidified, 5% CO2 cell culture incubator at 37°C. […] The curve fit was generated, and statistical analysis was performed using GraphPad Prism. IC50 values were derived by non-linear regression analysis and defined as the compound concentration at which the response level was reduced to half of its maximum relative to a DMSO control.

T5 sequence (P23458 875-1153 limits assumed): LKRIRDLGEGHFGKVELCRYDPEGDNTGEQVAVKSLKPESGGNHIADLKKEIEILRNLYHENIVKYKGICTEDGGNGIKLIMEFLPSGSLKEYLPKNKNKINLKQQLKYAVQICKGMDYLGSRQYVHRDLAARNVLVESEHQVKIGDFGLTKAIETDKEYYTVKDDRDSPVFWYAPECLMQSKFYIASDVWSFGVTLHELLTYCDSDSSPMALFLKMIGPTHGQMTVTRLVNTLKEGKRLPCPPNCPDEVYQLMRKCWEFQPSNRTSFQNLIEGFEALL
T1 sequence (O60674 545-809 limits assumed): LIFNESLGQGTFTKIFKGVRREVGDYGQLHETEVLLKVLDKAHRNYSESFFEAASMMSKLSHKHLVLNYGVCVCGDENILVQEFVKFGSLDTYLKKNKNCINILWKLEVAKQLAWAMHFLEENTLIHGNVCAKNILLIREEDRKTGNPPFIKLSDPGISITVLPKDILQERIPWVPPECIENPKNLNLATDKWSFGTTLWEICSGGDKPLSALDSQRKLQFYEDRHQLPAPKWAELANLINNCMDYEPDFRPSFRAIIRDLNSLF
T2 sequence (P23458 583-855 limits assumed): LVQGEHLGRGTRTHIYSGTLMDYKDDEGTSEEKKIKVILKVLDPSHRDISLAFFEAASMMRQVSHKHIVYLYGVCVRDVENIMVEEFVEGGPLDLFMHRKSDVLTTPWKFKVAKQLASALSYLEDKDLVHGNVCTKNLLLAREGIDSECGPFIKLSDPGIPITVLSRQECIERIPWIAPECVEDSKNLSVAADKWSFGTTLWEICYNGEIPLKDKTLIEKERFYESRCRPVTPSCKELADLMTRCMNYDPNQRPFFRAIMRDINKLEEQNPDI
CYP450 2C19, sequence (P33261 whole entry): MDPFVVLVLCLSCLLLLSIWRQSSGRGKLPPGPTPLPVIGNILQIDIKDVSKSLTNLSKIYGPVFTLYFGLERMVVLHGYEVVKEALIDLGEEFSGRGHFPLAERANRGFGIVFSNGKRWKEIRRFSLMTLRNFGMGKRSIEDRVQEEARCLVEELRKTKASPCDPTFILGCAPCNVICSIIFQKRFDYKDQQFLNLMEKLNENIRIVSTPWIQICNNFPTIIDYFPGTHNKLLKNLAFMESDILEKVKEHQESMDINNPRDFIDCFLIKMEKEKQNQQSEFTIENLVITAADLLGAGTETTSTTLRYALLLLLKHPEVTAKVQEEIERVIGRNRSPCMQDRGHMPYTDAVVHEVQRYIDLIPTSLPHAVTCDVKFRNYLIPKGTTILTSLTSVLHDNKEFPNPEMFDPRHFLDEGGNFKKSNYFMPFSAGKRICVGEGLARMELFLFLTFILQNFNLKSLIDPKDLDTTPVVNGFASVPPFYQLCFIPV
T6 sequence (O60674 849-1124 limits assumed): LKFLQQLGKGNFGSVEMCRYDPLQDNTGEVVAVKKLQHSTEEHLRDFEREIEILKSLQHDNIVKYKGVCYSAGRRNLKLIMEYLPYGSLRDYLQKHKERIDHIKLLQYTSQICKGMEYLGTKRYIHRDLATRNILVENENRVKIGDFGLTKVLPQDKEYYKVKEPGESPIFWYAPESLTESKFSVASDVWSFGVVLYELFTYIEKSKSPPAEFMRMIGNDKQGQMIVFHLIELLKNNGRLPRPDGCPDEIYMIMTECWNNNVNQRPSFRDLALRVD

**Q.** For `CNC(=O)c1nnc(NC(=O)N2CCC2)cc1Nc1cccc(-c2ncn(C)n2)c1OC` [SHR8751], which half-life (LM T1/2, R) is on record?
**A.** > 67 min

**Q.** And the Kd [1]?
**A.** 290 ± 99 nM

**Q.** What about the half-life (LM T1/2, M) of the same molecule?
**A.** > 139 min

**Q.** And the Kd [2]?
**A.** 3.7 ± 0.14 nM

**Q.** What about the IC50 (JAK3) of the same molecule?
**A.** > 10000 nM

**Q.** And the IC50 (CYP450 2C19)?
**A.** > 30000 nM

**Q.** What about the GSH (GSH) of the same molecule?
**A.** negative

**Q.** What about the fraction unbound (PPB, Mk) of the same molecule?
**A.** 0.281

**Q.** And the Kd (JAK3 JH1 kinase domain)?
**A.** 3700 ± 70 nM

**Q.** What about the Kd (JAK1 JH1 kinase domain) of the same molecule?
**A.** > 20000 nM

**Q.** What about the fraction unbound (PPB, R) of the same molecule?
**A.** 0.329

**Q.** What about the half-life (LM T1/2, H) of the same molecule?
**A.** > 139 min

**Q.** What about the Kd (JAK2 JH1 kinase domain) of the same molecule?
**A.** 6500 ± 1700 nM

**Q.** What about the IC50 [3] of the same molecule?
**A.** 37 nM

**Q.** What about the IC50 [4] of the same molecule?
**A.** > 10000 nM

**Q.** Which results are given for `CNC(=O)c1nnc(NC(=O)C2CC2)c2[nH]c(-c3ccc(N)cc3OC)cc12` [SHR2396]?
**A.** half-life (LM T1/2, R): > 67 min; Kd [1]: 190 ± 99 nM; half-life (LM T1/2, M): 31 min; Kd [2]: 0.52 ± 0.4 nM; IC50 (JAK3): > 10000 nM; IC50 (CYP450 2C19): > 30000 nM; GSH (GSH): negative; fraction unbound (PPB, Mk): 0.0351; Kd (JAK3 JH1 kinase domain): > 20000 nM; Kd (JAK1 JH1 kinase domain): > 20000 nM; fraction unbound (PPB, R): 0.0474; half-life (LM T1/2, H): > 139 min; Kd (JAK2 JH1 kinase domain): > 20000 nM; IC50 [3]: 15 nM; IC50 [4]: 1400 ± 1400 nM

**Q.** Which half-life (LM T1/2, R) does the source give for `[2H]C([2H])([2H])NC(=O)c1nnc(NC(=O)N2CCC2)cc1Nc1cccc(-c2ncn(C)n2)c1OC` [SHR9332] here?
**A.** > 67 min

**Q.** What about the Kd [1] of the same molecule?
**A.** 220 nM

**Q.** And the half-life (LM T1/2, M)?
**A.** 49.8 min

**Q.** And the Kd [2]?
**A.** 1.8 nM

**Q.** What about the IC50 (JAK3) of the same molecule?
**A.** > 10000 nM

**Q.** What about the IC50 (CYP450 2C19) of the same molecule?
**A.** > 30000 nM

**Q.** And the GSH (GSH)?
**A.** negative

**Q.** And the fraction unbound (PPB, Mk)?
**A.** 0.231

**Q.** What about the Kd (JAK3 JH1 kinase domain) of the same molecule?
**A.** 4500 nM

**Q.** What about the Kd (JAK1 JH1 kinase domain) of the same molecule?
**A.** > 20000 nM

**Q.** What about the fraction unbound (PPB, R) of the same molecule?
**A.** 0.254

**Q.** What about the half-life (LM T1/2, H) of the same molecule?
**A.** 47.5 min

**Q.** What about the Kd (JAK2 JH1 kinase domain) of the same molecule?
**A.** 2000 nM

**Q.** And the IC50 [3]?
**A.** 76 nM

**Q.** What about the IC50 [4] of the same molecule?
**A.** > 10000 nM
